# Assay results published in PubChem BioAssay (NCI).
#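 Method: 48-hour compound exposure of cells in 96-well plates, five concentrations, linear interpolation of endpoints. GI50 marks 50% less growth. TGI: concentration producing complete growth inhibition.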
# Experiments:
# Assay in all cases: NCI tumour cell line growth inhibition, 48 h
# [1] = tested on: 786-0 renal
# [2] = tested on: A498 renal
# [3] = tested on: A549 NSCLC
# [4] = tested on: ACHN renal
# [5] = tested on: BT-549 breast
# [6] = tested on: CAKI-1 renal
# [7] = tested on: CCRF-CEM leukemia
# [8] = tested on: COLO 205 colon
# [9] = tested on: DU-145 prostate
# [10] = tested on: EKVX NSCLC
# [11] = tested on: HCC-2998 colon
# [12] = tested on: HCT-116 colon
# [13] = tested on: HCT-15 colon
# [14] = tested on: HL-60(TB) leukemia
# [15] = tested on: HOP-62 NSCLC
# [16] = tested on: HOP-92 NSCLC
# [17] = tested on: HT29 colon
# [18] = tested on: IGROV1 ovarian
# [19] = tested on: K-562 leukemia
# [20] = tested on: KM12 colon
# [21] = tested on: LOX IMVI melanoma
# [22] = tested on: M14 melanoma
# [23] = tested on: MALME-3M melanoma
# [24] = tested on: MDA-MB-231 breast
# [25] = tested on: MDA-MB-435
# [26] = tested on: MDA-MB-468 breast
# [27] = tested on: NCI-H226 lung
# [28] = tested on: NCI-H23 lung
compound,measurement,setting,value
NS(=O)(=O)c1ccc(N=Nc2c(O)n(CC(=O)Nc3ccccc3)c3ccccc23)cc1,GI50,[1],1290 nM
same,TGI,[1],6540 nM
same,GI50,[2],1290 nM
same,TGI,[2],5390 nM
same,GI50,[3],738 nM
same,TGI,[3],4180 nM
same,GI50,[4],606 nM
same,TGI,[4],4530 nM
same,GI50,[5],2030 nM
same,TGI,[5],7730 nM
same,GI50,[6],434 nM
same,TGI,[6],2360 nM
same,GI50,[7],776 nM
same,TGI,[7],> 100000 nM
same,GI50,[8],1240 nM
same,TGI,[8],6740 nM
same,GI50,[9],794 nM
same,TGI,[9],48300 nM
same,GI50,[10],3350 nM
same,TGI,[10],39300 nM
same,GI50,[11],2200 nM
same,TGI,[11],8560 nM
same,GI50,[12],460 nM
same,TGI,[12],2580 nM
same,GI50,[13],533 nM
same,TGI,[13],> 100000 nM
same,GI50,[14],443 nM
same,TGI,[14],> 100000 nM
same,GI50,[15],1800 nM
same,TGI,[15],5500 nM
same,GI50,[16],1600 nM
same,TGI,[16],6560 nM
same,GI50,[17],749 nM
same,TGI,[17],2820 nM
same,GI50,[18],2790 nM
same,TGI,[18],14500 nM
same,GI50,[19],895 nM
same,TGI,[19],> 100000 nM
same,GI50,[20],1030 nM
same,TGI,[20],22500 nM
same,GI50,[21],725 nM
same,TGI,[21],11300 nM
same,GI50,[22],1140 nM
same,TGI,[22],> 100000 nM
same,GI50,[23],1090 nM
same,TGI,[23],5150 nM
same,GI50,[24],1400 nM
same,TGI,[24],3920 nM
same,GI50,[25],635 nM
same,TGI,[25],6100 nM
same,GI50,[26],768 nM
same,TGI,[26],4650 nM
same,GI50,[27],1400 nM
same,TGI,[27],4750 nM
same,GI50,[28],801 nM
same,TGI,[28],3460 nM
